In patent publication US9562076B2, “Hydrophobic modified pres-derived peptides of hepatitis B virus (HBV) and their use as HBV and HDV entry inhibitors” (priority 2008, dated 2017):
pIC50: −log10 of the molar value. Ends that are not written are not given here.

Tested on: HBV of genotype D
Format: cell-based, hepatitis B virus
Details: for IC90: HepaRG cells, HBV genotype D inoculum, HBsAg, Table 1
Procedure: HepaRG cells were grown in William's E medium supplemented with 10% fetal calf serum (FCS), 100 units/ml penicillin, 100 μg/ml streptomycin, 5 μg/ml insulin and 5×10^−5 M hydrocortisone hemisuccinate (16). Cells were passaged 1/5 every two weeks by trypsination. Two to three weeks before infection cell differentiation was induced by adding 2% DMSO into the maintenance medium. The medium was exchanged every 2-3 days.
As an infectious inoculum, a 50-fold concentrated culture supernatant of HepG2 clone 2.2.15 (23) cells was used, because of an unlimited supply and a constant quality. It was prepared from freshly collected supernatants by precipitating viral particles in the presence of 6% polyethylene glycol (PEG) 8000. The pellet was resuspended in phosphate buffered saline (PBS) containing 25% FCS. Aliquots were stored at −80° C. Differentiated HepaRG cells or PHH were incubated with the concentrated infectious source, 10-fold diluted in culture medium supplemented with 4% PEG 8000 (Sigma), for 20 h at 37° C. At the end of the incubation, cells were washed three times with the culture medium and maintained in the presence of 2% DMSO and 5×10^−5 M hydrocortisone hemisuccinate and harvested at indicated times.
Competition experiments were performed in 12-well plates. Approximately 1×10^6 cells were first pre-incubated for 30 min with chemically synthesized HBV derived peptides followed by a co-incubation of cells with peptide and virus for 20 h. All competition series were performed at least twice and the results of one representative experiment are shown in each case (see FIGS. 3 to 7).
HepaRG cells were infected either in absence (0 nM) or in the presence of • 1, 5, 25, 100 and 2000 nM of • HBVpreS/2-48^myr(D), • HBVpreS/2-48^myr(C), • HBVpreS/(−11)-48^myr(C), • HBVpreS/2-48^stearoyl(C) and • HBVpreS/(−11)-48^stearoyl(C); or • 0.125; 0.25; 0.5; 0.75 and 1 nM of • HBVpreS/2-48^myr(consensus), • HBVpreS/2-48^stearoyl(consensus), • 1, 5, 25, 100 and 1000 nM of • HBVpreS/2-48^stearoyl(D), • HBVpreS/2-15^stearoyl(D), • HBVpreS/2-21^stearoyl(D), • HBVpreS/2-26^stearoyl(D) and • HBVpreS/2-33^stearoyl(D); or • 1, 5, 25, 100 and 1000 nM of • HBVpreS/2-48^stearoyl(D), • HBVpreS/2-33^stearoyl(D), • HBVpreS/5-33^stearoyl(D), • HBVpreS/5-48^stearoyl(D), • HBVpreS/9-33^stearoyl(D) and • HBVpreS/9-48^stearoyl(D); or • 1, 5, 25, 100 and 1000 nM of • HBVpreS/2-48^stearoyl(D), • HBVpreS/2-48^stearoyl(D-AS^11-15)(D), • HBVpreS/2-48^stearoyl(Ala^11-15)(D), • HBVpreS/2-48^stearoyl(Δ17-21)(D), • HBVpreS/2-48^stearoyl(Ala^17-21)(D); or • 1, 5, 25, 100 and 1000 nM of • HBVpreS/2-48^stearoyl(retroinverso)(D) and • HBVpreS/2-48^stearoyl(Ala^21,23,29,30)(D); or • 1, 5, 25, 100 and 1000 nM of • HBVpreS/2-48^stearoyl(Ala^18)(D), • HBVpreS/2-48^stearoyl(Δ11-15)(D), • HBVpreS/2-48^stearoyl(Ser^13)(D), • HBVpreS/2-48^stearoyl(Arg^11)(D).; or • 50, 100, 150, 250 and 1000 pM […] of • HBVpreS/2-48^myr(C) and • HBVpreS/2-48^stearoyl(C), wherein (C) refers to HBV genotype C Q46K.
The infectious inoculum (HBV of genotype D) and the peptides were incubated overnight. After washing, cells were maintained for another 12 days to allow viral gene expression. Cell culture supernatants from day 8-12 were collected and analyzed for secreted HBSAg using a quantitative commercially available ELISA. HBsAg values from the respective uncompleted infection were set to 100% and the degree of infection inhibition is given in % of the uncompleted infection.

Molecule	inhibition of the entry of HBV genotype D by a genotype C derived peptide (cross prevention)	pIC50 (of genotype D)	IC90 [nM]
HBVpreS/2-21^stearoyl(C): stearoylated residues 2 to 21 of genotype C, SEQ ID NO. 13 (GTNLSVPNPLGFFPDHQLDP; not fully specified (N-terminus); also: stearoyl)	can inhibit the entry of HBV genotype D		
CCCCCCCCCCCCCCCCCC(=O)NCC(=O)N[C@@H](CCC(N)=O)C(=O)N[C@@H](CC(N)=O)C(=O)N[C@@H](CC(C)C)C(=O)N[C@@H](CO)C(=O)N[C@H](C(=O)N[C@@H](CO)C(=O)N[C@@H](CC(N)=O)C(=O)N1CCC[C@H]1C(=O)N[C@@H](CC(C)C)C(=O)NCC(=O)N[C@@H](Cc1ccccc1)C(=O)N[C@@H](Cc1ccccc1)C(=O)N1CCC[C@H]1C(=O)N[C@@H](CC(=O)O)C(=O)N[C@@H](Cc1c[nH]cn1)C(=O)N[C@@H](CCC(N)=O)C(=O)N[C@@H](CC(C)C)C(=O)N[C@@H](CC(=O)O)C(=O)N1CCC[C@H]1C(=O)O)[C@@H](C)O [HBVpreS/2-21^stearoyl]		~8.10	
HBVpreS/2-48^myr(C)	can inhibit the entry of HBV genotype D		~5
HBVpreS/2-48^stearoyl(C)			~1
HBVpreS/2-48^stearoyl(D): stearoylated residues 2 to 48 of genotype D, SEQ ID NO. 16			~3
